Patent US4495197A, “N-Carboxyl-thienamycin esters and analogs thereof as anti-inflammatory agents” (Merck & Co., Inc., priority 1982, dated 1985)
Like-named read-outs stand apart in the source and are kept apart here.

Target: T1, Human Polymorphonuclear Leukocyte Elastase (Homo sapiens, UniProt P08246)
T1 construct: Crude extract of human polymorphonuclear leukocytes (PMN) containing elastase activity; from tissue; host or cells: human polymorphonuclear leukocytes (crude extract)
T1 sequence (P08246 30-247 limits assumed): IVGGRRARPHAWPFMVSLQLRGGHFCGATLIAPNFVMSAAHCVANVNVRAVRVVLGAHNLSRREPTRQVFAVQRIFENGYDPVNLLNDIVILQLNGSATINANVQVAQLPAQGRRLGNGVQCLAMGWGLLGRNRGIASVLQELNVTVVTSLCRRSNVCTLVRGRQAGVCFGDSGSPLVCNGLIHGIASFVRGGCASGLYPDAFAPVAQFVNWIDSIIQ
Assay: Inhibition of human PMN elastase via hydrolysis of N-t-Boc-alanyl-alanyl-prolylalanine-p-nitroanilide
Format: biochemical
Conditions: pH 7.5
Procedure: Protocol-Enzyme Assays for the Inhibition of Human Polymorphonuclear Leukocyte Elastase Via Hydrolysis of N-t-Boc-alanyl-alanyl-prolylalanine-p-nitroanilide Reagents:
0.05M TES (N-tris[hydroxymethyl]methyl-2-amino-ethanesulfonic acid) Buffer, pH 7.5.
0.2 mM N-t-Boc-alanyl-alanyl-Prolyl-Alanine-p-nitroanilide (Boc-AAPAN).
To prepare substrate, the solid (m.w. 550) was first dissolved in 10.0 ml DMSO. Buffer at pH 7.5 was then added to a final volume of 100 ml.
Crude extract of human polymorphonuclear leukocytes (PMN) containing elastase activity.
Inhibitors (N-carboxyl-thienamycin eesters) to be tested dissolved in DMSO just before use.
To 1.0 ml of 0.2 mM Boc-AAPAN in a cuvette, 0.01-0.1 ml of DMSO with or without inhibitor was added. After mixing, a measurement was taken at 410 mμ to detect any spontaneous hydrolysis due to presence of test compound. 0.05 Milliliters of PMN extract was then added and the ΔOD/min at 410 mμ was measured and recorded. Beckman model 35 spectrophotometer was used.
Results were reported as % inhibition produced by test compound within 2 minutes as represented by the % decrease in ΔOD/min as compared to a control without inhibitor.
The elastase activity in the crude PMN extract may vary from one preparation to another. A control of each new batch is run, and the volume added in the assay procedure is adjusted according to activity.

| SMILES | inhibition at 5 µg/mL | inhibition at 20 µg/mL | inhibition at 50 µg/mL | inhibition at 0.5 µg/mL | inhibition at 10 µg/mL | inhibition at 25 µg/mL | also measured |
| --- | --- | --- | --- | --- | --- | --- | --- |
| CC(O)C1C(=O)N2C(C(=O)OCc3ccccc3)=C(SCCNC(=O)OCc3ccccc3)CC12 (centres unmarked) [" benzyl benzyl H H] | – | – | – | – | – | – | inhibition at 5 µg/mL (conc. 5 μg/ml, measured within 2 minutes, crude PMN extract, Boc-AAPAN substrate, read-out: % Inhibition): 33%; inhibition at 20 µg/mL (conc. 20 μg/ml, measured within 2 minutes, crude PMN extract, Boc-AAPAN substrate, read-out: % Inhibition): 69%; inhibition at 50 µg/mL (conc. 50 μg/ml, measured within 2 minutes, crude PMN extract, Boc-AAPAN substrate, read-out: % Inhibition): 86% |
| O=C(NCCSC1=C(C(=O)OCc2ccc([N+](=O)[O-])cc2)N2C(=O)CC2C1)OCc1ccc([N+](=O)[O-])cc1 (centres unmarked) [H PNB PNB H H] | 18% | 50% | 63% | – | – | – | – |
| CC(CSC1=C(C(=O)OCc2ccc([N+](=O)[O-])cc2)N2C(=O)C(C(C)O)C2C1)NC(=O)OCc1ccc([N+](=O)[O-])cc1 (centres unmarked) | – | – | – | 42% | 94% | 100% | inhibition at 1 µg/mL: 55%; inhibition at 2 µg/mL: 77% |
| CC(O)C1C(=O)N2C(C(=O)OCc3ccc([N+](=O)[O-])cc3)=C(SCC(C)(C)NC(=O)OCc3ccc([N+](=O)[O-])cc3)CC12 (centres unmarked) | 89% | 100% | – | 45% | – | – | – |
| CC(OC(=O)OCc1ccc([N+](=O)[O-])cc1)C1C(=O)N2C(C(=O)OCc3ccc([N+](=O)[O-])cc3)=C(SCCNC(=O)OCc3ccc([N+](=O)[O-])cc3)CC12 (centres unmarked) | – | – | 55% | – | 29% | 45% | – |
